Patent US8829049B2, “Medicinal composition intended for the treatment of erectile dysfunction in mammals and use of the composition” (ACEF S.A., priority 2009, dated 2014)
“Also recorded” adds a separate entry of the source. Counter-ions that a name gives are not always drawn.

Columns and labels:
[1] = heart rate and adverse signs in the treated mice; type: in vivo; conditions: for Heart rate, AVERAGE, after: after administration; for Heart rate, AVERAGE, before: before administration; for adverse signs observed (tachycardia, shaking): intraperitoneal, Group I sildenafil citrate, Group III cubebin
Experimental: (§1) 42 Swiss mice have been used, adults, between 18 and 24 weeks old, weighing between 25 and 35 grams, from the Biotherium of the University of Franca (UNIFRAN), which were confined in plastic cages with metal fences and fed with standard feed (Labina-Purina) and water ad libitum, at room temperature of 22° C.
After a period of adaptation, the animals have been divided into seven groups, as per Table 1 below: […]

[2] = target: phosphodiesterase 5 (PDE-5) (Homo sapiens, UniProt O76074); assay: activity test for the enzyme phosphodiesterase 5 (PDE-5); type: biochemical; conditions: PDE-5 enzyme activity; read-out: 50% effective dose (DE50)
[3] = system: patients; conditions: cited from earlier work; for interaction with nitrates: combination with nitroglycerin / organic nitrates; for adverse effects: patients
[4] = cited from earlier work
[5] = system: Swiss mice; assay: vasodilating effect / penile erection test in Swiss mice, intraperitoneal administration, with penile histology; type: in vivo
Experimental: as §1
After a period of adaptation, the animals have been divided into seven groups, as per Table 1 below:
Animals from all groups have been kept under the same conditions for four hours for later evaluation of the studied pharmacological effect. They were subsequently anesthetized with a solution of 1.5 mg of ketamine plus 0.1 mg of xylazine and then euthanized to take off the penile tissue. Each sample was immediately stocked in 10% formaldehyde to make histological slides.

Row | Compound | Heart rate, AVERAGE, after [1] | Heart rate, AVERAGE, before [1] | adverse signs observed (tachycardia, shaking) [1] | EC50 [2] [µM] | interaction with nitrates [3] | adverse effects [3] | also measured
1 | OC1OC[C@H](Cc2ccc3c(c2)OCO3)[C@H]1Cc1ccc2c(c1)OCO2 (mixture of isomers) [cubebin] | 553.5 | 621.7 | not causing tachycardia or shaking | 16.6 ± 8.2 | – | – | –
2 | CN1CC(=O)N2[C@H](c3ccc4c(c3)OCO4)c3[nH]c4ccccc4c3C[C@@H]2C1=O [Tadalafil] | – | – | – | – | modest synergic effects | patients did not have red skin | –
3 | CCCc1nc(C)c2c(=O)[nH]c(-c3cc(S(=O)(=O)N4CCN(CC)CC4)ccc3OCC)nn12 [Vardenafil] | – | – | – | – | minimum changes in heart rate and blood pressure | – | time to maximum plasma concentration ([4]; single doses of 10 or 20 mg): ≤ 0.7 h
4 | O[C@H]1OC[C@H](Cc2ccc3c(c2)OCO3)[C@H]1Cc1ccc2c(c1)OCO2 [cubebin] | – | – | – | – | – | – | ejaculation after treatment ([5]; mice of Group III, FIGS. 4c and 4d): ejaculating after said treatment; penile erection / sexual behaviour observed ([5]; mice, intraperitoneal, Group I sildenafil citrate, Group III 20 mg/kg cubebin): prolonged erection and licked the penis; also recorded: penile erection; histology of corpus cavernosum ([5]; mouse penile tissue, H. E., 400×): void space very dilated and congested
5 | CCCc1nn(C)c2c(=O)[nH]c(-c3cc(S(=O)(=O)N4CCN(C)CC4)ccc3OCC)nc12 [sildenafil citrate] | 627.75 | 628.5 | tachycardia, shaking and testicle tumescence | – | – | cephalea, red skin, dyspepsia, nose congestion and visual disturbances | half life in circulation ([4]; in vivo): four; deaths related to the drug reported ([3]; in vivo): More than 500 deaths; rate of deaths ([3]; in vivo): fifty
6 | hydroethylic desildenafil citrate | – | – | – | 38.4 ± 1.8 | – | – | –
